{"source": "paper PMC7520961", "about": "“Safety evaluation of the interchangeable use of robenacoxib in commercially-available tablets and solution for injection in cats” (BMC Veterinary Research, 2020)", "test": "Toxicokinetics: robenacoxib concentration in blood by LC-MS/MS", "format": "in vivo, cat", "experimental": "Approximately 0.5 mL of whole blood was collected from animals via the jugular vein and placed in tubes containing K2EDTA. Samples were collected within 30 minutes prior to dosing and at 0.75, and 4 hours postdose on Days 1, 4, 7, 10, 17, 30, and 37. A single 0.5 mL sample was collected from all animals 4 hours postdose on Days 8, 11, 14, 28, 31, and 34. The animals were fasted for predose and 0.75 hour blood collections and were fed 2 to 3 hours after dose administration. Samples were stored frozen (-10 to […]) within approximately 1 hour after collection until analyzed. Day 1 blood samples were inadvertently processed to plasma and therefore not analyzed.\nRobenacoxib was quantitatively analyzed in blood using a validated analytical method involving liquid chromatography with tandem mass spectrometry detection (LC-MS/MS) that has been previously describe. Performance of the method was monitored by low, medium and high quality control samples, where inter-run %RSD (relative standard deviation) was 8.3, 7.4, and 5.8, respectively.\nOnly abbreviated toxicokinetic sampling was performed so as not to interfere with the primary objective of the study. Concentrations below the limit of quantification were considered 0.", "note": "“Also recorded” adds a separate entry of the source."}
{"smiles": "CCc1ccc(Nc2c(F)c(F)cc(F)c2F)c(CC(=O)O)c1", "note": "[robenacoxib]", "values": [{"measurement": "plasma robenacoxib concentration (mean ± SD)", "setting": "1X, SC 2.0 mg/kg/day, Study Day 8, 4 h postdose", "result": "98.2 ± 60.7", "unit": "ng/mL"}, {"measurement": "plasma robenacoxib concentration (mean ± SD)", "setting": "1X, SC 2.0 mg/kg/day, Study Day 10, 0.75 h postdose", "result": "1124.1 ± 325.9", "unit": "ng/mL"}, {"measurement": "plasma robenacoxib concentration (mean ± SD)", "setting": "1X, SC 2.0 mg/kg/day, Study Day 10, 4 h postdose", "result": "79.1 ± 51.5", "unit": "ng/mL"}, {"measurement": "plasma robenacoxib concentration (mean ± SD)", "setting": "1X, SC 2.0 mg/kg/day, Study Day 28, 4 h postdose", "result": "117.2 ± 86.1", "unit": "ng/mL"}, {"measurement": "plasma robenacoxib concentration (mean ± SD)", "setting": "1X, SC 2.0 mg/kg/day, Study Day 30, 0.75 h postdose", "result": "1358.6 ± 254.5", "unit": "ng/mL"}, {"measurement": "plasma robenacoxib concentration (mean ± SD)", "setting": "1X, SC 2.0 mg/kg/day, Study Day 30, 4 h postdose", "result": "94.8 ± 68.3", "unit": "ng/mL"}, {"measurement": "plasma robenacoxib concentration (mean ± SD)", "setting": "1X, oral ≥2.4 mg/kg/day, Study Day 4, 0.75 h postdose", "result": "2593.1 ± 909.5", "unit": "ng/mL"}, {"measurement": "plasma robenacoxib concentration (mean ± SD)", "setting": "1X, oral ≥2.4 mg/kg/day, Study Day 4, 4 h postdose", "result": "22.9 ± 11.6", "unit": "ng/mL"}, {"measurement": "plasma robenacoxib concentration (mean ± SD)", "setting": "1X, oral ≥2.4 mg/kg/day, Study Day 7, 0.75 h postdose", "result": "2591.3 ± 875.5", "unit": "ng/mL"}, {"measurement": "plasma robenacoxib concentration (mean ± SD)", "setting": "1X, oral ≥2.4 mg/kg/day, Study Day 7, 4 h postdose", "result": "26.9 ± 27.4", "unit": "ng/mL"}, {"measurement": "plasma robenacoxib concentration (mean ± SD)", "setting": "1X, oral ≥2.4 mg/kg/day, Study Day 11, 4 h postdose", "result": "34.9 ± 36.2", "unit": "ng/mL"}, {"measurement": "plasma robenacoxib concentration (mean ± SD)", "setting": "1X, oral ≥2.4 mg/kg/day, Study Day 14, 4 h postdose", "result": "19.0 ± 7.3", "unit": "ng/mL"}, {"measurement": "plasma robenacoxib concentration (mean ± SD)", "setting": "1X, oral ≥2.4 mg/kg/day, Study Day 17, 0.75 h postdose", "result": "2811.3 ± 1502.1", "unit": "ng/mL"}, {"measurement": "plasma robenacoxib concentration (mean ± SD)", "setting": "1X, oral ≥2.4 mg/kg/day, Study Day 17, 4 h postdose", "result": "42.7 ± 49.7", "unit": "ng/mL"}, {"measurement": "plasma robenacoxib concentration (mean ± SD)", "setting": "1X, oral ≥2.4 mg/kg/day, Study Day 31, 4 h postdose", "result": "27.2 ± 16.0", "unit": "ng/mL"}, {"measurement": "plasma robenacoxib concentration (mean ± SD)", "setting": "1X, oral ≥2.4 mg/kg/day, Study Day 34, 4 h postdose", "result": "35.3 ± 28.5", "unit": "ng/mL"}, {"measurement": "plasma robenacoxib concentration (mean ± SD)", "setting": "1X, oral ≥2.4 mg/kg/day, Study Day 37, 0.75 h postdose", "result": "2717.6 ± 1589.6", "unit": "ng/mL"}, {"measurement": "plasma robenacoxib concentration (mean ± SD)", "setting": "1X, oral ≥2.4 mg/kg/day, Study Day 37, 4 h postdose", "result": "90.4 ± 106.6", "unit": "ng/mL"}, {"measurement": "plasma robenacoxib concentration (mean ± SD)", "setting": "2X, SC 4.0 mg/kg/day, Study Day 8, 4 h postdose", "result": "233.6 ± 215.8", "unit": "ng/mL"}, {"measurement": "plasma robenacoxib concentration (mean ± SD)", "setting": "2X, SC 4.0 mg/kg/day, Study Day 10, 0.75 h postdose", "result": "1481.3 ± 359.7", "unit": "ng/mL"}, {"measurement": "plasma robenacoxib concentration (mean ± SD)", "setting": "2X, SC 4.0 mg/kg/day, Study Day 10, 4 h postdose", "result": "263.1 ± 249.4", "unit": "ng/mL"}, {"measurement": "plasma robenacoxib concentration (mean ± SD)", "setting": "2X, SC 4.0 mg/kg/day, Study Day 28, 4 h postdose", "result": "236.6 ± 130.2", "unit": "ng/mL"}, {"measurement": "plasma robenacoxib concentration (mean ± SD)", "setting": "2X, SC 4.0 mg/kg/day, Study Day 30, 0.75 h postdose", "result": "1821.6 ± 817.9", "unit": "ng/mL"}, {"measurement": "plasma robenacoxib concentration (mean ± SD)", "setting": "2X, SC 4.0 mg/kg/day, Study Day 30, 4 h postdose", "result": "326.0 ± 276.7", "unit": "ng/mL"}, {"measurement": "plasma robenacoxib concentration (mean ± SD)", "setting": "2X, oral ≥4.8 mg/kg/day, Study Day 4, 0.75 h postdose", "result": "5177.5 ± 2229.5", "unit": "ng/mL"}, {"measurement": "plasma robenacoxib concentration (mean ± SD)", "setting": "2X, oral ≥4.8 mg/kg/day, Study Day 4, 4 h postdose", "result": "54.2 ± 28.5", "unit": "ng/mL"}, {"measurement": "plasma robenacoxib concentration (mean ± SD)", "setting": "2X, oral ≥4.8 mg/kg/day, Study Day 7, 0.75 h postdose", "result": "3383.8 ± 1818.8", "unit": "ng/mL"}, {"measurement": "plasma robenacoxib concentration (mean ± SD)", "setting": "2X, oral ≥4.8 mg/kg/day, Study Day 7, 4 h postdose", "result": "67.8 ± 58.5", "unit": "ng/mL"}, {"measurement": "plasma robenacoxib concentration (mean ± SD)", "setting": "2X, oral ≥4.8 mg/kg/day, Study Day 11, 4 h postdose", "result": "66.6 ± 57.4", "unit": "ng/mL"}, {"measurement": "plasma robenacoxib concentration (mean ± SD)", "setting": "2X, oral ≥4.8 mg/kg/day, Study Day 14, 4 h postdose", "result": "53.8 ± 59.0", "unit": "ng/mL"}, {"measurement": "plasma robenacoxib concentration (mean ± SD)", "setting": "2X, oral ≥4.8 mg/kg/day, Study Day 17, 0.75 h postdose", "result": "4160.0 ± 1166.0", "unit": "ng/mL"}, {"measurement": "plasma robenacoxib concentration (mean ± SD)", "setting": "2X, oral ≥4.8 mg/kg/day, Study Day 17, 4 h postdose", "result": "64.5 ± 54.7", "unit": "ng/mL"}, {"measurement": "plasma robenacoxib concentration (mean ± SD)", "setting": "2X, oral ≥4.8 mg/kg/day, Study Day 31, 4 h postdose", "result": "101.5 ± 152.6", "unit": "ng/mL"}, {"measurement": "plasma robenacoxib concentration (mean ± SD)", "setting": "2X, oral ≥4.8 mg/kg/day, Study Day 34, 4 h postdose", "result": "92.2 ± 58.5", "unit": "ng/mL"}, {"measurement": "plasma robenacoxib concentration (mean ± SD)", "setting": "2X, oral ≥4.8 mg/kg/day, Study Day 37, 0.75 h postdose", "result": "4009.4 ± 1765.2", "unit": "ng/mL"}, {"measurement": "plasma robenacoxib concentration (mean ± SD)", "setting": "2X, oral ≥4.8 mg/kg/day, Study Day 37, 4 h postdose", "result": "80.0 ± 62.6", "unit": "ng/mL"}, {"measurement": "plasma robenacoxib concentration (mean ± SD)", "setting": "3X, SC 6.0 mg/kg/day, Study Day 8, 4 h postdose", "result": "723.3 ± 250.8", "unit": "ng/mL"}, {"measurement": "plasma robenacoxib concentration (mean ± SD)", "setting": "3X, SC 6.0 mg/kg/day, Study Day 10, 0.75 h postdose", "result": "2461.3 ± 1075.8", "unit": "ng/mL"}, {"measurement": "plasma robenacoxib concentration (mean ± SD)", "setting": "3X, SC 6.0 mg/kg/day, Study Day 10, 4 h postdose", "result": "390.2 ± 236.2", "unit": "ng/mL"}, {"measurement": "plasma robenacoxib concentration (mean ± SD)", "setting": "3X, SC 6.0 mg/kg/day, Study Day 28, 4 h postdose", "result": "394.8 ± 187.7", "unit": "ng/mL"}, {"measurement": "plasma robenacoxib concentration (mean ± SD)", "setting": "3X, SC 6.0 mg/kg/day, Study Day 30, 0.75 h postdose", "result": "2878.8 ± 831.4", "unit": "ng/mL"}, {"measurement": "plasma robenacoxib concentration (mean ± SD)", "setting": "3X, SC 6.0 mg/kg/day, Study Day 30, 4 h postdose", "result": "418.7 ± 246.2", "unit": "ng/mL"}, {"measurement": "plasma robenacoxib concentration (mean ± SD)", "setting": "3X, oral ≥7.2 mg/kg/day, Study Day 4, 0.75 h postdose", "result": "5511.8 ± 3389.8", "unit": "ng/mL"}, {"measurement": "plasma robenacoxib concentration (mean ± SD)", "setting": "3X, oral ≥7.2 mg/kg/day, Study Day 4, 4 h postdose", "result": "98.0 ± 48.6", "unit": "ng/mL"}, {"measurement": "plasma robenacoxib concentration (mean ± SD)", "setting": "3X, oral ≥7.2 mg/kg/day, Study Day 7, 0.75 h postdose", "result": "7267.5 ± 4006.6", "unit": "ng/mL"}, {"measurement": "plasma robenacoxib concentration (mean ± SD)", "setting": "3X, oral ≥7.2 mg/kg/day, Study Day 7, 4 h postdose", "result": "76.2 ± 32.2", "unit": "ng/mL"}, {"measurement": "plasma robenacoxib concentration (mean ± SD)", "setting": "3X, oral ≥7.2 mg/kg/day, Study Day 11, 4 h postdose", "result": "99.2 ± 36.3", "unit": "ng/mL"}, {"measurement": "plasma robenacoxib concentration (mean ± SD)", "setting": "3X, oral ≥7.2 mg/kg/day, Study Day 14, 4 h postdose", "result": "79.1 ± 38.0", "unit": "ng/mL"}, {"measurement": "plasma robenacoxib concentration (mean ± SD)", "setting": "3X, oral ≥7.2 mg/kg/day, Study Day 17, 0.75 h postdose", "result": "5798.8 ± 3218.0", "unit": "ng/mL"}, {"measurement": "plasma robenacoxib concentration (mean ± SD)", "setting": "3X, oral ≥7.2 mg/kg/day, Study Day 17, 4 h postdose", "result": "108.5 ± 67.8", "unit": "ng/mL"}, {"measurement": "plasma robenacoxib concentration (mean ± SD)", "setting": "3X, oral ≥7.2 mg/kg/day, Study Day 31, 4 h postdose", "result": "94.7 ± 69.7", "unit": "ng/mL"}, {"measurement": "plasma robenacoxib concentration (mean ± SD)", "setting": "3X, oral ≥7.2 mg/kg/day, Study Day 34, 4 h postdose", "result": "84.2 ± 30.3", "unit": "ng/mL"}, {"measurement": "plasma robenacoxib concentration (mean ± SD)", "setting": "3X, oral ≥7.2 mg/kg/day, Study Day 37, 0.75 h postdose", "result": "6460.0 ± 3839.3", "unit": "ng/mL"}, {"measurement": "plasma robenacoxib concentration (mean ± SD)", "setting": "3X, oral ≥7.2 mg/kg/day, Study Day 37, 4 h postdose", "result": "123.2 ± 121.7", "unit": "ng/mL"}, {"measurement": "oral administration vs subcutaneous injection, average concentrations", "setting": "all dose groups", "result": "higher average 0.75 h concentrations and lower average 4 h concentrations"}, {"measurement": "accumulation of robenacoxib", "setting": "comparing concentrations 4 h post oral administration (Days 4, 7, 11, 14, 17, 31, 34, 37)", "result": "no accumulation observed after Day 4; also recorded: No robenacoxib accumulation was observed"}]}
